Source: patent publication US4412996A, “Pyridoxine derivatives and related pharmaceutical compositions” (Crinos Farmacologica Spa, priority 1980, dated 1983)
Counter-ions that a name gives are not always drawn. Like-named read-outs stand apart in the source and are kept apart here.

Assays:
rat [1] = test: Ulcerogenic activity / gastric tolerability, UD50 in fasted rats; format: in vivo; conditions: for Gastric tolerability UD50 fasted 18 h / Gastric tolerability UD50 fasted 48 h: rat, in vivo, po
From the text: (§1) The UD50 has been also calculated according to the aforesaid method of Litchfield and Wilcoxon.

[2] = as above; format: in vivo, rat; conditions: rat, in vivo, po
From the text: as §1

rat [3] = test: Acute toxicity in the rat (method of Litchfield and Wilcoxon); conditions: in vivo, po
From the text: (§2) In the following resuming table the results obtained for the esters of the Indomethacin are reported. In the determination of the acute toxicity, carried out in the rat, the method of Litchfield and Wilcoxon (J. Pharmacol. Exp. Therm., 96, 99, 1949) has been adopted.

[4] = Analgesic activity (method of Randall and Selitto); format: in vivo; conditions: for ED50: po, read-out: Randall-Selitto (3 h) ED50; for selectivity ratio: in vivo, Randall-Selitto 3 h, read-out: Therapeutical index LD50/ED50 (Randall-Selitto 3h)
From the text: As regards the analgesic activity, the evaluation has been carried out according to the method of Randall and Selitto (Arch. Ing. Pharmacodyn., 111, 409, […]).

rat [5] = test: Anti-inflammatory activity, carrageenin induced oedema (Winter et al.); format: in vivo; conditions: 3 h; for Carrageenin induced oedema (3 h) ED50: 180 min; for ED50: Rattus norvegicus, po, read-out: Carrageenin induced oedema (3 h) ED50
From the text: (§3) As regards the anti-inflammatory activity, the ED50 in the normal rat has been evaluated according to Winter et al. (Proc. Soc. Exp. Biol. Med., 111, 544, 1962).

[6] = Acute toxicity in the rat (method of Litchfield and Wilcoxon); conditions: in vivo, po
From the text: as §2

[7] = Anti-inflammatory activity, carrageenin induced oedema (Winter et al.); format: in vivo, rat; conditions: rat, in vivo; carrageenin 3 h; read-out: Therapeutical index LD50/ED50 (carrageenin 3h)
From the text: as §3

[8] = Solubility of the product; format: physicochemical
[9] = UD50 18 h, carrageenin 3 h, read-out: Tolerability index UD50 (18 h)/ED50 (carrageenin 3 h)
[10] = UD50 48 h, carrageenin 3 h, read-out: Tolerability index UD50 (48 h)/ED50 (carrageenin 3 h)
[11] = UD50 18 h, Randall-Selitto 3 h, read-out: Tolerability index UD50 (18h)/ED50 (Randall-Selitto 3 H)
[12] = UD50 48 h, Randall-Selitto 3 h, read-out: Tolerability index UD50 (48 h)/ED50 (Randall-Selitto 3 h)

Compound	Tolerability index UD50 (18h)/ED50 (Randall-Selitto 3 H) (rat [1]; UD50 18 h)	Tolerability index UD50 (48 h)/ED50 (Randall-Selitto 3 h) (rat [1]; UD50 48 h)	Gastric tolerability UD50 fasted 18 h (rat [1])	Gastric tolerability UD50 fasted 48 h (rat [1])	selectivity ratio [2, 9]	selectivity ratio [2, 10]	LD50, rat (rat [3]) [mg/kg]	ED50 ([4]; 3 h, per os) [mg/kg]	Carrageenin induced oedema (3 h) ED50 (rat [5]; normal rat, per os) [mg/kg/os]	selectivity ratio [2, 11]	selectivity ratio [2, 12]	selectivity ratio [4]	selectivity ratio [7]	also measured
COc1ccc2c(c1)c(CC(=O)OCc1cnc(C)c3c1COC(C)(C)O3)c(C)n2C(=O)c1ccc(Cl)cc1 [compound ex. 1(c), (3,4-isopropylidene)-pyridoxine ester of 1-(p-chlorobenzoyl)-2-methyl-5-methoxy-indol-3-acetic acid]	78.51	51.85	212.00	140.00	5.75	3.8	> 200	2.7	36.83					
COc1ccc2c(c1)c(CC(=O)O)c(C)n2C(=O)c1ccc(Cl)cc1 [Indomethacin, 1-(p-chlorobenzoyl)-2-methyl-5-methoxy-indol-3-acetic acid, reference compound]					1.57	0.78				5.18	2.59	15.8	4.77	TD50 at 18 h ([2]; fasted rats, per os, 18 h, read-out: Gastric tolerability UD50 fasted 18 h): 6.9 mg/kg; TD50 at 48 h ([2]; fasted rats, per os, 48 h, read-out: Gastric tolerability UD50 fasted 48 h): 3.45 mg/kg; LD50 ([6]; per os (head: mg/kg/os), * = insufficient sample): 21 mg/kg; ED50 ([4]; 3 h): 1.33 mg/kg; ED50 (rat [5]): 4.4 mg/kg
COc1ccc2c(c1)c(CC(=O)OCc1cnc(C)c3c1COC(C)(C)O3)c(C)n2C(=O)c1ccc(Cl)cc1 [compound ex. 1(b), Hydrochloride of the (3,4-isopropylidene)-pyridoxine ester of 1-(p-chlorobenzoyl)-2-methyl-5-methoxy-indol-3-acetic acid]	12.59	8.45	33.50	22.50			85		10.13			31.9	8.39	Tolerability index UD50 (18 h)/ED50 (carrageenin 3 h) (rat [1]; UD50 18 h, carrageenin 3 h): 3.30; Tolerability index UD50 (48 h)/ED50 (carrageenin 3 h) (rat [1]; UD50 48 h, carrageenin 3 h): 2.22; solubility in cold chloroform ([8]; cold chloroform): soluble; solubility in hot N,N'-dimethylformamide ([8]; hot N,N'-dimethylformamide): poorly soluble; solubility in hot ethanol ([8]; hot ethanol): soluble; solubility in water ([8]; water): insoluble; Randall-Selitto (3 h) ED50 ([4]; 3 h, per os, 180 min): 2.66 mg/kg/os
COc1ccc2c(c1)c(CC(=O)OCc1cnc(C)c(O)c1CO)c(C)n2C(=O)c1ccc(Cl)cc1 [compound ex. 2, Pyridoxine ester of 1-(p-chlorobenzoyl)-2-methyl-5-methoxy-indol-3-acetic acid]					6.97	3.75		3.37		157	84.6			TD50 at 18 h ([2]; Gastric tolerability UD50 fasted 18 h): 530 mg/kg; TD50 at 48 h ([2]; Gastric tolerability UD50 fasted 48 h): 285 mg/kg; mortality ([6]; 819 mg/kg, read-out: LD50, rat line: percent at 819 mg/kg): 62.5%; ED50 (rat [5]; normal rat, per os): 76 mg/kg
